Data set [1] concerns human liver. The conditions noted are these: in vivo, cited from earlier work.
The test system of data set [2] is rats. The conditions noted are these: bosentan-treated rats; cited from earlier work.
Data set [3] concerns clinical trial participants. The conditions noted are these: of 15 clinical trial participants; cited from earlier work.
Data set [4] relates to mice, rats, dogs and primates. The conditions noted are these: cited from earlier work.
The test system of data set [5] is rat liver. Description: Serum ALT after GCV in neonatal rats given rAAV-PB-HSVtk and rAAV-PBo. The format is in vivo. The conditions noted are these: 50 mg/kg GCV, 2 injections 2 days apart, 2 weeks after rAAV-PB-HSVtk and rAAV-PBo (5e10 vector genomes each); serum one week later. As to the method:
20% targeted delivery is insufficient to induce desirable liver damage with ganciclovir (GCV). Three day old neonatal rats were injected with 5e10 vector genomes each of rAAV-PB-HSVtk and rAAV-PBo per animal. Due to the stable integration and expression of suicide gene HSVtk mediated by piggyBac transposon multiple injections of ganciclovir (GCV) can be administered over a prolonged period of time. 2 weeks later, each animal was injected with 50 mg/kg GCV (2 injections, 2 days apart). One week later blood serum was collected and analyzed for elevated ALT levels, which is indicative of liver damage. […] ALT levels in the 200-300 range in desirable prior to transplantation of human hepatocytes.

Read-outs that look alike come from different tables or passages of the source.

As for `COc1ccccc1Oc1c(NS(=O)(=O)c2ccc(C(C)(C)C)cc2)nc(-c2ncccn2)nc1OCCO` [Bosentan], the human-specific hepatotoxicity result in data set [1] is reported as “causes hepatotoxicity in a human-specific manner”; in data set [1] (listed as Bosetan), “known to cause human-specific hepatotoxicity”. Moreover, in data set [2], the hepatotoxicity in rats entry is recorded as “do not develop hepatotoxicity”.

As to `O=c1[nH]c(=O)n([C@@H]2O[C@H](CO)[C@@H](O)[C@@H]2F)cc1I` [FIAU], in data set [3], the “participants who developed acute liver failure” value is given as “seven”, the participants who died result is “five” and the “participants who required a liver transplant” value is “two”. Also, the “outcome of preclinical toxicology studies” value in data set [4] was “cleared all preclinical toxicology studies”. Moreover, in data set [1], the human-specific hepatotoxicity result is “known to cause human-specific hepatotoxicity”.

With `Nc1nc(O)c2ncn(COC(CO)CO)c2n1` [GCV, ganciclovir], in data set [5], the “serum ALT levels (liver damage)” value was “normal ALT levels”.

These data come from patent publication US20170112108A1, “GENETICALLY MODIFIED NON-HUMAN MAMMALS HAVING MODIFIED LIVER CELLS AND/OR TISSUE AND METHODS OF MAKING SAME” (priority 2015, published 2017).
